Some results are limits rather than exact numbers.

The test relates to mutant Huntington (HTT) protein. Put plainly: HTT Mutant HTRF iPSC assay (mHTT protein lowering). The format is cell-based. The note with it: human iPSC derived from a HTT patient with a poly-Q49 mutation.
In the case of `Cc1cc(-c2cc(F)c3nc(C4CCNCC4)cn3c2)nc2cn(C)nc12` [Compound 92, 5-(8-fluoro-2-(piperidin-4-yl)imidazo[1,2-a]pyridin-6-yl)-2,7-dimethyl-2H-pyrazolo[4,3-b]pyridine], the half-inhibitory concentration (IC50) is less than 0.1 µM.
In turn, `Cc1cn2nc(-c3cc(F)c4nc(NC(=O)C5CC6CC5CN6)cn4c3)cc(C)c2n1` (racemic) [Compound 280] yielded an IC50 of less than 0.1 µM.
Regarding `Cc1cn2nc(-c3ccc4nc(C5CCNCC5)c(F)n4c3)cc(C)c2n1` [Compound 557], the concentration for half-maximal inhibition (IC50) is less than 0.1 µM.
As for `Cc1cn2nc(-c3cc(F)c4nc(NC(=O)[C@H]5CN[C@@H]5C)cn4c3)cc(C)c2n1` (stereo in doubt) [Compound 286, rel-(2R,3S)-N-(6-(2,8-dimethylimidazo[1,2-b]pyridazin-6-yl)-8-fluoroimidazo[1,2-a]pyridin-2-yl)-2-methylazetidine-3-carboxamide], the figure is less than 0.1 µM; as for `Cc1cn2nc(-c3cc(F)c4nc(C5CCOCC5)cn4c3)cc(C)c2n1` [Compound 169, 6-(8-fluoro-2-(tetrahydro-2H-pyran-4-yl)imidazo[1,2-a]pyridin-6-yl)-2,8-dimethylimidazo[1,2-b]pyridazine], 0.1 to 1 µM; as for `CN[C@H]1CCC[C@@H](c2cn3cc(-c4cc(F)c5nn(C)cc5c4)cc(F)c3n2)C1` (stereo in doubt) [Compound 163, rel-(1R,3S)-3-(8-fluoro-6-(7-fluoro-2-methyl-2H-indazol-5-yl)imidazo[1,2-a]pyridin-2-yl)-N-methylcyclohexan-1-amine], 0.1 to 1 µM.
Under `Cc1cn2nc(-c3cc(F)c4nc([C@H]5[C@@H]6CNC[C@@H]65)nn4c3)cc(C)c2n1` [Compound 443, 2-[(1R,5S)-3-azabicyclo[3.1.0]hexan-6-yl]-6-(2,8-dimethylimidazo[1,2-b]pyridazin-6-yl)-8-fluoro-[1,2,4]triazolo[1,5-a]pyridine] stands less than 0.1 µM; under `Cc1cn2cc(-c3cc(F)c4nn(C5CCNCC5)cc4c3)cc2c(C)n1` [Compound 369, 5-(1,3-dimethylpyrrolo[1,2-a]pyrazin-7-yl)-7-fluoro-2-(piperidin-4-yl)-2H-indazole], less than 0.1 µM; under `Cc1cn2nc(-c3cc(F)c4nc([C@@H]5CCC6(CCNCC6)C5)cn4c3)cc(C)c2n1` (single isomer, unassigned) [Compound 119], less than 0.1 µM.
The compound `Cc1cn2nc(-c3cc(F)c4nc(NC(=O)C5CC56CNC6)nn4c3)cc(C)c2n1` (stereo not shown) [Compound 318] returned an IC50 of 1 to 9 µM.
Under `CCN1CCC(c2nc3c(F)cc(-c4cc(C)c5nc(C)cn5n4)cn3n2)CC1` [Compound 435, 6-(2,8-dimethylimidazo[1,2-b]pyridazin-6-yl)-2-(1-ethylpiperidin-4-yl)-8-fluoro-[1,2,4]triazolo[1,5-a]pyridine] stands 0.1 to 1 µM; under `Cc1cn2nc(-c3cc(F)c4nc([C@H]5C[C@]6(CCN(C)C6)C5)cn4c3)cc(C)c2n1` [Compound 203, 6-(8-fluoro-2-((2s,4s)-6-methyl-6-azaspiro[3.4]octan-2-yl)imidazo[1,2-a]pyridin-6-yl)-2,8-dimethylimidazo[1,2-b]pyridazine], less than 0.1 µM.
As for `Fc1cc(-c2ccn3nccc3c2)cn2cc(C3CCNCC3)nc12` [Compound 34, 8-fluoro-2-(piperidin-4-yl)-6-(pyrazolo[1,5-a]pyridin-5-yl)imidazo[1,2-a]pyridine], the concentration for half-maximal inhibition (IC50) lay in the range of 1 to 9 µM.
In turn, `Cc1cn2nc(-c3cc(F)c4nc([C@H]5[C@@H]6CN(C)C[C@@H]65)cn4c3)cc(C(F)(F)F)c2n1` [Compound 230, 6-(8-fluoro-2-((1R,5S,6r)-3-methyl-3-azabicyclo[3.1.0]hexan-6-yl)imidazo[1,2-a]pyridin-6-yl)-2-methyl-8-(trifluoromethyl)imidazo [1,2-b]pyridazine] gave a concentration for half-maximal inhibition (IC50) of less than 0.1 µM.
Consider `Cc1cn2nc(-c3cc(F)c4[nH]c(C5C6CNCC65)nc4c3)cc(C)c2n1` (stereo not shown) [Compound 429, 6-(2-(3-azabicyclo[3.1.0]hexan-6-yl)-7-fluoro-1H-benzo[d]imidazol-5-yl)-2,8-dimethylimidazo[1,2-b]pyridazine], for which the IC50 is less than 0.1 µM.
`Fc1cc(-c2cc(F)c3nc(C4CCNCC4)cn3c2)cc2[nH]ncc12` [Compound 52, 4-fluoro-6-(8-fluoro-2-(piperidin-4-yl)imidazo[1,2-a]pyridin-6-yl)-1H-indazole] displayed an IC50 of 1 to 9 µM.
The compound `Cc1cn2nc(-c3cc(F)c4nc(C5CC6(CNC6)C5)nn4c3)cc(C)c2n1` [Compound 442, 6-(2,8-dimethylimidazo[1,2-b]pyridazin-6-yl)-8-fluoro-2-(2-azaspiro[3.3]heptan-6-yl)-[1,2,4]triazolo[1,5-a]pyridine] yielded a concentration for half-maximal inhibition (IC50) of 0.1 to 1 µM.
Consider `Cn1cc2cc(-c3cc(F)c4nc(CC5CNC5)cn4c3)cc(F)c2n1` [Compound 19, 5-(2-(azetidin-3-ylmethyl)-8-fluoroimidazo[1,2-a]pyridin-6-yl)-7-fluoro-2-methyl-2H-indazole], for which the concentration for half-maximal inhibition (IC50) is 1 to 9 µM.
As to `Cc1nc2c(C)cc(-c3cc(F)c4nc(C5CCNCC5)cn4c3)cn2n1` [Compound 123, 6-(8-fluoro-2-(piperidin-4-yl)imidazo[1,2-a]pyridin-6-yl)-2,8-dimethyl-[1,2,4]triazolo[1,5-a]pyridine], the 50% inhibitory concentration (IC50) is 0.1 to 1 µM.
Under `Cc1nc2c(C(F)(F)F)cc(-c3cc(F)c4nn(C5CCNCC5)nc4c3)nn2n1` [Compound 391, 6-(7-fluoro-2-(piperidin-4-yl)-2H-benzo[d][1,2,3]triazol-5-yl)-2-methyl-8-(trifluoromethyl)-[1,2,4]triazolo[1,5-b]pyridazine] stands less than 0.1 µM; under `Cc1cn2cc(-c3cc(F)c4nc(C5CCNCC5)cn4c3)nc(C)c2n1` [Compound 125, 6-(8-fluoro-2-(piperidin-4-yl)imidazo[1,2-a]pyridin-6-yl)-2,8-dimethylimidazo[1,2-a]pyrazine], 0.1 to 1 µM; under `Cc1cn2nc(-c3cc(F)c4nc(C5CCC(C)(C)NC5)nn4c3)cc(C)c2n1` (stereo not shown) [Compound 445, 6-(2,8-dimethylimidazo[1,2-b]pyridazin-6-yl)-2-(6,6-dimethylpiperidin-3-yl)-8-fluoro-[1,2,4]triazolo[1,5-a]pyridine], 0.1 to 1 µM.
In the case of `Cc1cn2cc(-c3cc(F)c4[nH]c(C5CCNCC5)nc4c3)cc2c(C)n1` [Compound 145, 5-(1,3-dimethylpyrrolo[1,2-a]pyrazin-7-yl)-7-fluoro-2-(piperidin-4-yl)-1H-benzo[d]imidazole], the IC50 lay within 1 to 9 µM.
In the case of `N#Cc1cccc2[nH]c(-c3cc(F)c4nc(C5CCNCC5)cn4c3)cc12` [Compound 56, 2-(8-fluoro-2-(piperidin-4-yl)imidazo[1,2-a]pyridin-6-yl)-1H-indole-4-carbonitrile], the IC50 is 1 to 9 µM.
Compound `Cc1cn2nc(-c3cc(F)c4nc(N5CCC6(CCN(C)C6)CC5)oc4c3)cc(C)c2n1` [Compound 470, 6-(2,8-dimethylimidazo[1,2-b]pyridazin-6-yl)-4-fluoro-2-(2-methyl-2,8-diazaspiro[4.5]decan-8-yl)benzo[d]oxazole] returned an IC50 of less than 0.1 µM.
As for `Fc1cc(-c2ccc3nsnc3c2)cn2cc(C3CCNCC3)nc12` [Compound 54, 5-(8-fluoro-2-(piperidin-4-yl)imidazo[1,2-a]pyridin-6-yl)benzo[c][1,2,5]thiadi azole], the figure is 1 to 9 µM.
As for `Cc1cn2nc(-c3cc(F)c4nc([C@H]5CCNC6(CC6)C5)cn4c3)cc(C)c2n1` (single isomer, unassigned) [Compound 180], the figure is less than 0.1 µM; as for `CC(C)N1CC(C(=O)Nc2cn3cc(-c4cc(F)c5nn(C)cc5c4)cc(F)c3n2)C1` [Compound 291, N-(8-fluoro-6-(7-fluoro-2-methyl-2H-indazol-5-yl)imidazo[1,2-a]pyridin-2-yl)-1-isopropylazetidine-3-carboxamide], 0.1 to 1 µM; as for `CCN1CCC(n2nc3cc(-c4cc(C)c5nc(C)cn5n4)cc(F)c3n2)CC1` [Compound 376, 6-(2,8-dimethylimidazo[1,2-b]pyridazin-6-yl)-2-(1-ethyl-4-piperidyl)-4-fluoro-benzotriazole], 0.1 to 1 µM.
Under `Cc1cn2nc(-c3cc(F)c4nc(C5CCNCC5)cn4c3)c(C)cc2n1` [Compound 101, 6-(8-fluoro-2-(piperidin-4-yl)imidazo[1,2-a]pyridin-6-yl)-2,7-dimethylimidazo[1,2-b]pyridazine] stands 1 to 9 µM.
On to `Cc1cn2nc(-c3cc(F)c4nn(C5C[C@@H](C)N[C@H](C)C5)nc4c3)cc(C)c2n1` (relative stereo) [Compound 393, 6-(2,8-dimethylimidazo[1,2-b]pyridazin-6-yl)-2-((2R,6R)-2,6-dimethylpiperidin-4-yl)-4-fluoro-2H-benzo[d][1,2,3]triazole], for which the IC50 lay within 0.1 to 1 µM.
As to `Cn1cc2cc(-c3cc(F)c4nc(C56CC(N)(CO5)C6)cn4c3)cc(F)c2n1` [Compound 68], the IC50 was in the range of 1 to 9 µM.
As for `Cc1cn2nc(-c3cc(F)c4nc(C5CCN(C6CC6)CC5)cn4c3)ccc2n1` [Compound 106, 6-(2-(1-cyclopropylpiperidin-4-yl)-8-fluoroimidazo[1,2-a]pyridin-6-yl)-2-methylimidazo[1,2-b]pyridazine], the figure is less than 0.1 µM; as for `Cc1cn2nc(-c3cc(F)c4nc(N5CCC6(CCN(C)C6)C5)oc4c3)cc(C)c2n1` (stereo not shown) [Compound 501, 6-(2,8-dimethylimidazo[1,2-b]pyridazin-6-yl)-4-fluoro-2-(7-methyl-2,7-diazaspiro[4.4]nonan-2-yl)benzo[d]oxazole], 0.1 to 1 µM; as for `CCN1CCC(c2cn3cc(-c4cc(C)c5nn(C)cc5n4)cc(F)c3n2)CC1` [Compound 173, 5-(2-(1-ethylpiperidin-4-yl)-8-fluoroimidazo[1,2-a]pyridin-6-yl)-2,7-dimethyl-2H-pyrazolo[4,3-b]pyridine], 0.1 to 1 µM.
Compound `Cc1cc(-c2cc(F)c3nc(C4CCN(C5CC5)CC4)cn3c2)nc2cn(C)nc12` [Compound 171, 5-(2-(1-cyclopropylpiperidin-4-yl)-8-fluoroimidazo[1,2-a]pyridin-6-yl)-2,7-dimethyl-2H-pyrazolo[4,3-b]pyridine] came in with an IC50 of less than 0.1 µM.
For the compound `Cc1cc(-c2cc(F)c3nn(C4CCNCC4)cc3c2)cc2cn(C)nc12` [Compound 351, 7-fluoro-2′,7′-dimethyl-2-(piperidin-4-yl)-2H,2′H-5,5′-biindazole], the IC50 is 0.1 to 1 µM.

The values above are taken from US20250353841A1 (BIOGEN MA INC., priority 2022, published 2025).
